Patent US20220040255A1, “CHEMOTHERAPEUTIC REMODELING OF THE GUT MICROBIOME” (THE SCRIPPS RESEARCH INSTITUTE, priority 2018, published 2022)
Where a SMILES comes first, the peptide text is derived from it. [ ]: non-standard residue; d: D form.

How the values were obtained:
gut microbiota = experiment: in vivo remodeling of the gut microbiome (feces 16S rRNA sequencing); parameters: species or system LDLr−/− mice; conditions: for overall microbiota alpha diversity: in vivo, 10-week study, peptide treatment; for time within which the Bacteroidetes/Firmicutes ratio increased relative to the vehicle WD-fed group: oral in drinking water, ~35 mg/kg/day, WD-fed LDLr−/− mice
Protocol: (§1) Animals and diets. LDL receptor-null (LDLr^−/−) mice on a C57BL/6J background were initially purchased from Jackson Laboratories (Bar Harbor, Me.) and were bred in house. Unless otherwise noted, all experiments were performed with 8-12 weeks old LDLr^−/− female mice. For studies involving analysis of the gut microbiome, the mice were rotated between cages and co-housed with the mice from different groups for at least one week before the beginning of each study to reduce the variation in the composition of gut microbiome caused by the housing environment. The mice were weaned at 4 weeks of age and were fed ad libitum a standard chow diet (Harlan Teklad 7019) until they were 10-weeks old, when they were switched to a high-fat diet (WD) containing 15.8% (wt/wt) fat, 1.25% (wt/wt) cholesterol, and no cholate (Harlan Teklad 94059). At the time that the WD was started, the cyclic peptide was added to the drinking water at a dose of 180 μM and the mice (female, n=8 per dosing group) were continued on WD for 10 weeks. The lyophilized peptide was dissolved in PBS (pH 7.4) containing 1% sucrose, resulting in a clear solution. The drinking water solution was replaced with fresh solution daily for c[wLwReQeR] (SEQ ID NO:11) or every other day for c[wLwKhShK] (SEQ ID NO:1). A control group of eight mice (female, n=8) was fed WD and provided vehicle (PBS with 1% sucrose) drinking water. The mice consumed approximately 4.0 mL of water per day per mouse, and there was no significant difference in water or food consumption between groups. All procedures involving live animals were approved by the Scripps Research Institute Institutional Animal Care and Use Committee.
Feces sample collection and DNA extraction. The feces samples were freshly collected after 2, 6, and 10 weeks of treatment, snap-frozen, and stored at −80° C. Microbial genomic DNA was isolated with PowerSoil DNA isolation kit by following manufacturer's instructions (Mo Bio).
16S rRNA gene sequencing and processing. PCR amplicons of the V3-V4 16S rRNA region were amplified and sequenced using an Illumina MiSeq platform. For each sample, duplicate 25 μl PCR reactions were performed, each containing 50 ng of purified DNA, 12.5 μl 2×KAPA HiFi HotStart ReadyMix (Kapa biosystem), and 0.15 μM of each primer designed to amplify the V3-V4 region:
16S rRNA gene sequencing data analysis. We used custom python scripts to demultiplex sequencing reads based on the second barcode index and remove PCR duplication artifacts found using unique molecular identifiers prior to analyzing sequences using MOTHUR (version 1.36.1). […] Briefly, contigs were generated by combining forward and reverse paired-end reads. […] We performed a pre-clustering step to cluster reads up to 2 bp apart and removed all chimeric sequences. […]

[1] = plasma cholesterol and lipoprotein profile; assay type: in vivo, LDLr−/− mice; conditions: for reduction in cholesterol in the CHD mice: CHD-fed mice; for HDL-cholesterol levels / levels of VLDL and LDL / reduction of plasma total cholesterol compared to the untreated WD group: WD; for HDL-cholesterol levels / levels of VLDL and LDL: peptide-treated animals; for reduction of plasma total cholesterol compared to the untreated WD group: two-week time point, oral administration
Protocol: as §1
Measurement of plasma cholesterol and liver enzyme activities. The mice were bled after an overnight fast after 2 and 10 weeks of treatment. The plasma samples were used to determine lipoprotein profiles and the levels of cholesterol, alanine aminotransferase (ALT), and aspartate aminotransferase (AST). Measurements of plasma levels of cholesterol, ALT, and AST were performed as described in Zhao et al., ACS Cent. Sci. 3, 639-646, 2017. Briefly, plasma was separated from whole blood immediately by centrifugation of the blood samples at 5,000 rpm for 10 min at 4° C., and was then stored at −80° C. Plasma total cholesterol was measured using an enzymatic fluorometric method kit (Amplex® red cholesterol assay kit, No. A12216, Life Technologies) according to the manufacturer's instructions. Plasma ALT and AST concentrations were measured using Infinity ALT (GPT) and AST (GOT) liquid stable assays, respectively, which are colorimetric kinetic assays (Thermo Scientific). Assays were performed in accordance with the manufacturer's recommendations, adjusting the reagent volumes (20 μL plasma+200 μL reagent, 0.69 cm light pathlength of the solution in the well) for analysis of samples in 96-well flat-bottom microplate format.
Plasma lipoprotein profile. Pooled plasma (240 μL total, 30 μL from each, n=8 fasted mice per group) from the two-week blood draw was used for fast protein liquid chromatography (FPLC) analysis. Lipoproteins were separated by using 3 Superdex 200 10/30 columns connected in series (GE Healthcare). The plasma was centrifuged at 11,000 rpm for 10 min at room temperature to remove particulates (floating material was gently mixed into liquid before removing the supernatant for FPLC injection). 200 μL of the pooled plasma was injected on the system eluted with 10 mM tris-HCl buffer, pH 7.4, containing 1 mM EDTA and 150 mM NaCl; a flow rate of 0.5 ml/min and fraction size of 0.5 mL were used.

CC(C)C[C@@H]1NC(=O)[C@@H](Cc2c[nH]c3ccccc23)NC(=O)[C@H](CCCCN)NC(=O)[C@@H](Cc2c[nH]cn2)NC(=O)[C@H](CO)NC(=O)[C@@H](Cc2c[nH]cn2)NC(=O)[C@H](CCCCN)NC(=O)[C@@H](Cc2c[nH]c3ccccc23)NC1=O [c[wLwKhShK]] (cyclo([dW]L[dW]K[dH]S[dH]K))
overall microbiota alpha diversity (gut microbiota): unchanged | time within which the Bacteroidetes/Firmicutes ratio increased relative to the vehicle WD-fed group (gut microbiota): ≤ 2 weeks | reduction in cholesterol in the CHD mice [1]: no analogous peptide-mediated reduction | HDL-cholesterol levels [1]: higher | levels of VLDL and LDL [1]: marked reduction | reduction of plasma total cholesterol compared to the untreated WD group [1]: 37%

CC(C)C[C@@H]1NC(=O)[C@@H](Cc2c[nH]c3ccccc23)NC(=O)[C@H](CCCNC(=N)N)NC(=O)[C@@H](CCC(=O)O)NC(=O)[C@H](CCC(N)=O)NC(=O)[C@@H](CCC(=O)O)NC(=O)[C@H](CCCNC(=N)N)NC(=O)[C@@H](Cc2c[nH]c3ccccc23)NC1=O [c[wLwReQeR]] (cyclo([dW]L[dW]R[dE]Q[dE]R))
overall microbiota alpha diversity (gut microbiota): unchanged | time within which the Bacteroidetes/Firmicutes ratio increased relative to the vehicle WD-fed group (gut microbiota): ≤ 6 weeks | reduction in cholesterol in the CHD mice [1]: no analogous peptide-mediated reduction | HDL-cholesterol levels [1]: higher | levels of VLDL and LDL [1]: marked reduction | reduction of plasma total cholesterol compared to the untreated WD group [1]: 36%
